This is an account of results in ChEMBL document CHEMBL1909046, “DrugMatrix in vitro pharmacology data”.

Assay [1] can be described thus: DRUGMATRIX: Sodium/nucleoside co-transporter radioligand binding (ligand: nitrobenzylthioinosine). Format: cell membranes, Cavia porcellus, Dunkin-Hartley, Cerebral cortex, Membrane. The settings on record: Not Active = under 50% inhibition at 10 µM.
Assay [2] has as its target T1, Alpha-2A adrenergic receptor (Homo sapiens, UniProt P08913). Note: in other assays of this panel Not Active means under 50% inhibition at 10 µM.
T1 sequence (P08913 whole entry): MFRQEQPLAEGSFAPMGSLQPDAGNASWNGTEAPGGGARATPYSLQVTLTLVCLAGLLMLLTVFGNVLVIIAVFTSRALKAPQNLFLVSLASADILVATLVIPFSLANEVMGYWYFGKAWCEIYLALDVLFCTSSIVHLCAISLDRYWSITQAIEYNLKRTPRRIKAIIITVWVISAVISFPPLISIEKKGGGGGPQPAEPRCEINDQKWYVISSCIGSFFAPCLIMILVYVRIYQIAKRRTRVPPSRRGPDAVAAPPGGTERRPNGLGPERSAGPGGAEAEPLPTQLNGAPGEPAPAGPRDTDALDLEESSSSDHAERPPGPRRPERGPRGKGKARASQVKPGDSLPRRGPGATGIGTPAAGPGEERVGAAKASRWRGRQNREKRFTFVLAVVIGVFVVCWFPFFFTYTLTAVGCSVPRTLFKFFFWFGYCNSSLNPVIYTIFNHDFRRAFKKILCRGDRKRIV
Format: cell membranes, Sf9, Membrane. The settings on record: for Ki: read-out: Ki.

The next assay addresses Acetylcholinesterase (Homo sapiens, UniProt P22303). Nature of the assay: DRUGMATRIX: Acetylcholinesterase enzyme inhibition (substrate: acetylthiocholine). Format: cell-based, HEK293. The settings on record: hek293; Not Active = under 50% inhibition at 10 µM.
A short description of assay [3]: DRUGMATRIX: GABAA, Flunitrazepam, Central radioligand binding (ligand: [3H] Flunitrazepam). Type of assay: cell membranes, Rattus norvegicus, Wistar, Brain, Membrane. The settings on record: Not Active = under 50% inhibition at 10 µM.
The target of another assay is T2, Calcitonin receptor (Homo sapiens, UniProt P30988). Note: in other assays of this panel Not Active means under 50% inhibition at 10 µM.
T2 sequence (P30988 whole entry): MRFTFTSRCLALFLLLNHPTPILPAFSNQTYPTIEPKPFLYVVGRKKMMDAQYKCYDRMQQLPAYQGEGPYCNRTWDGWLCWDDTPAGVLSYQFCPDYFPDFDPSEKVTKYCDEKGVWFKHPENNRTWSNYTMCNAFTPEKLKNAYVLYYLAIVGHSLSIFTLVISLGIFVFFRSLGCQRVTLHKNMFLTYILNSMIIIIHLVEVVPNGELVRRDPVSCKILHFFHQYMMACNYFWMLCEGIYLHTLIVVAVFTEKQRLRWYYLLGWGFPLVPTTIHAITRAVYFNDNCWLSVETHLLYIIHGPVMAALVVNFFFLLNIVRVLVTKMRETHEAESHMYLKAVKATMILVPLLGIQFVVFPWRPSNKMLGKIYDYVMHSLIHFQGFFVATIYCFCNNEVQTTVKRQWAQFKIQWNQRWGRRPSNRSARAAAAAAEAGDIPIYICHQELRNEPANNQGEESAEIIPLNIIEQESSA
Type of assay: cell membranes, Membrane. The settings on record: t47d.

Another assay has as its target Cannabinoid receptor 1 (Homo sapiens, UniProt P21554). Type of assay: cell membranes, Membrane. The settings on record: chem-1. Note: in other assays of this panel Not Active means under 50% inhibition at 10 µM.

Chain of Acetylcholinesterase (P22303 whole entry): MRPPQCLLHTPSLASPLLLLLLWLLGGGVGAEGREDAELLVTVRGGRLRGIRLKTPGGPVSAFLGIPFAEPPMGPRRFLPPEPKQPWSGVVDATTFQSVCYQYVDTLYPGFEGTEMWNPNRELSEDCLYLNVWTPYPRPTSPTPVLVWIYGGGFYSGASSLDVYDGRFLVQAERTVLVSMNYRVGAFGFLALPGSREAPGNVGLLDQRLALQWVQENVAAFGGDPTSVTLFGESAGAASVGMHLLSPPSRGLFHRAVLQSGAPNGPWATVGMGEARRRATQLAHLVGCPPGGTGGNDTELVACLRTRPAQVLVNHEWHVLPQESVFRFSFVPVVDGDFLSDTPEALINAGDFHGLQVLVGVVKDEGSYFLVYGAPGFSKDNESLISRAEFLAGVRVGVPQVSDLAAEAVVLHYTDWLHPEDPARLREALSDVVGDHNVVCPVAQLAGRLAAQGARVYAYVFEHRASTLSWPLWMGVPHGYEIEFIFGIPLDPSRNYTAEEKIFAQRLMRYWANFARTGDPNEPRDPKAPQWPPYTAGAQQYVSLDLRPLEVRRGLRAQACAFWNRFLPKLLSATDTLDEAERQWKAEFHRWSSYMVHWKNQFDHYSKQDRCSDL
Chain of Cannabinoid receptor 1 (P21554 whole entry): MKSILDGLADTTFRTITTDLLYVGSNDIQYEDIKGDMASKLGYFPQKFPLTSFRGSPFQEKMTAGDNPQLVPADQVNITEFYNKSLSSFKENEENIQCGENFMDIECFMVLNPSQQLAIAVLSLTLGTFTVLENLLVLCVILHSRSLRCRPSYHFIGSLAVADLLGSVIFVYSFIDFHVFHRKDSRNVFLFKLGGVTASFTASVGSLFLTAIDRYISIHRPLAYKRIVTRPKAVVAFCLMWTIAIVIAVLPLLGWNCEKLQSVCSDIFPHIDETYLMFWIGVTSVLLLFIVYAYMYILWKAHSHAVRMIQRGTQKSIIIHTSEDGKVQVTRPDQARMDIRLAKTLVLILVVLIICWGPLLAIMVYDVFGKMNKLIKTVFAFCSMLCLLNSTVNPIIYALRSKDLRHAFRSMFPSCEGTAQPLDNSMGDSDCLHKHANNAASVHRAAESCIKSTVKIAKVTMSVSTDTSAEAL

As a reminder, the IC50 is the concentration needed to halve the response being measured. A word on the Ki: it is a measure of affinity in units of concentration, obtained from inhibition or displacement. `CC(C)(C)NC(=O)[C@@H]1C[C@@H]2CCCC[C@@H]2CN1C[C@@H](O)[C@H](Cc1ccccc1)NC(=O)[C@H](CC(N)=O)NC(=O)c1ccc2ccccc2n1`: the IC50 result (in assay [1]; in assay [2] (sf9); at Acetylcholinesterase; in assay [3]; at Calcitonin receptor; on Cannabinoid receptor 1) was “Not Active” in each case. Also, the Ki result in assay [1] and in assay [3] was “Not Active” in each case.
As to `CC(=O)[C@@]1(O)CC[C@H]2[C@@H]3C[C@H](C)C4=CC(=O)CC[C@]4(C)[C@H]3CC[C@@]21C`, the IC50 result (in assay [1]; in assay [2] (sf9); against Acetylcholinesterase; in assay [3]; at Calcitonin receptor; on Cannabinoid receptor 1) was “Not Active” each time. The Ki result in assay [1] and in assay [3] was “Not Active” throughout.
For the compound `N[C@@H](Cc1ccc(N(CCCl)CCCl)cc1)C(=O)O`, the concentration for half-maximal inhibition (IC50) result (in assay [1]; in assay [2] (sf9); against Acetylcholinesterase; in assay [3]; on Calcitonin receptor; on Cannabinoid receptor 1) was “Not Active” in each case. Moreover, the Ki result in assay [1] and in assay [3] was “Not Active” in each case.
Consider `CCCCc1oc2ccccc2c1C(=O)c1cc(I)c(OCCN(CC)CC)c(I)c1` [AMIODARONE], for which the IC50 entry against Acetylcholinesterase, at Calcitonin receptor and against Cannabinoid receptor 1 was “Not Active” each time.
Turning to `OCCN(CCO)c1nc(N2CCCCC2)c2nc(N(CCO)CCO)nc(N3CCCCC3)c2n1` [DIPYRIDAMOLE], the IC50 in assay [1] (read-out: IC50) is 0.083 µM; in assay [2] (sf9), “Not Active”; against Acetylcholinesterase, “Not Active”; in assay [3] (read-out: IC50), 0.382 µM; at Calcitonin receptor, “Not Active”; on Cannabinoid receptor 1, “Not Active”. Moreover, the Ki amounted to 29 nM in assay [1] (read-out: Ki) and 0.311 µM in assay [3] (read-out: Ki).
As to `Cc1oncc1C(=O)Nc1ccc(C(F)(F)F)cc1` [LEFLUNOMIDE], the IC50 is 15.1 µM in assay [1] (read-out: IC50); “Not Active” in assay [2] (sf9); “Not Active” against Acetylcholinesterase; “Not Active” in assay [3]; “Not Active” at Calcitonin receptor; “Not Active” against Cannabinoid receptor 1. For the same compound, the values for the Ki in assay [1] (read-out: Ki) and in assay [3] were 5160 nM and “Not Active”, respectively.
For `c1ccc([C@H]2CN3CCSC3=N2)cc1` [LEVAMISOLE], the half-inhibitory concentration (IC50) entry (in assay [1]; in assay [2] (sf9); on Acetylcholinesterase; in assay [3]; on Calcitonin receptor; against Cannabinoid receptor 1) was “Not Active” in each case. Also, the Ki entry in assay [1] and in assay [3] was “Not Active” in each case.
With `N[C@@H](Cc1ccc(O)c(O)c1)C(=O)O` [LEVODOPA], the IC50 result (in assay [1]; in assay [2] (sf9); against Acetylcholinesterase; in assay [3]; on Calcitonin receptor; against Cannabinoid receptor 1) was “Not Active” throughout. Besides, the Ki entry in assay [1] and in assay [3] was “Not Active” each time.
Turning to `N[C@@H](Cc1cc(I)c(Oc2ccc(O)c(I)c2)c(I)c1)C(=O)O` [LIOTHYRONINE], the IC50 result (in assay [2] (sf9); at Acetylcholinesterase; on Calcitonin receptor; on Cannabinoid receptor 1) was “Not Active” throughout.
`O=NN(CCCl)C(=O)NC1CCCCC1` [LOMUSTINE]: the IC50 entry (in assay [1]; in assay [2] (sf9); at Acetylcholinesterase; in assay [3]; at Calcitonin receptor; at Cannabinoid receptor 1) was “Not Active” throughout. The Ki entry in assay [1] and in assay [3] was “Not Active” in each case.
`CCOC(=O)N1CCC(=C2c3ccc(Cl)cc3CCc3cccnc32)CC1` [LORATADINE]: the half-inhibitory concentration (IC50) entry (in assay [1]; in assay [2] (sf9); against Acetylcholinesterase; in assay [3]; on Calcitonin receptor; against Cannabinoid receptor 1) was “Not Active” each time. Moreover, the inhibition constant (Ki) result in assay [1] and in assay [3] was “Not Active” each time.
Regarding `Cn1ccnc1S` [METHIMAZOLE], the IC50 result (in assay [1]; in assay [2] (sf9); against Acetylcholinesterase; in assay [3]; at Calcitonin receptor; against Cannabinoid receptor 1) was “Not Active” each time. The inhibition constant (Ki) result in assay [1] and in assay [3] was “Not Active” in each case.
Consider `CC[C@@H](CO)NC(=O)[C@@H]1C=C2c3cccc4[nH]cc(c34)C[C@H]2N(C)C1` [METHYLERGONOVINE], for which the half-inhibitory concentration (IC50) entry in assay [1] is “Not Active”; in assay [2] (read-out: IC50), 1590 nM; on Acetylcholinesterase, “Not Active”; in assay [3] it was “Not Active”; at Calcitonin receptor it was “Not Active”; on Cannabinoid receptor 1, “Not Active”. In addition, the inhibition constant (Ki) entry in assay [1] is “Not Active”; in assay [2], 596 nM; in assay [3], “Not Active”.
Regarding `COc1nc(C)nc(Cl)c1NC1=NCCN1` [MOXONIDINE], the IC50 entry (in assay [1]; in assay [2] (sf9); against Acetylcholinesterase; in assay [3]; on Calcitonin receptor; at Cannabinoid receptor 1) was “Not Active” each time. The inhibition constant Ki result in assay [1] and in assay [3] was “Not Active” in each case.
`COc1c(C)c2c(c(O)c1C/C=C(\C)CCC(=O)O)C(=O)OC2` [MYCOPHENOLIC ACID]: the IC50 entry (in assay [1]; in assay [2] (sf9); at Acetylcholinesterase; in assay [3]; on Calcitonin receptor; at Cannabinoid receptor 1) was “Not Active” in each case. Besides, the Ki result in assay [1] and in assay [3] was “Not Active” each time.
As to `O=c1ncn2nc(Sc3ccc(F)cc3F)ccc2c1-c1c(Cl)cccc1Cl` [NEFLAMAPIMOD], the IC50 entry was “Not Active” in assay [1]; 34200 nM in assay [2] (read-out: IC50); “Not Active” at Acetylcholinesterase; 12 µM in assay [3] (read-out: IC50); “Not Active” on Calcitonin receptor; “Not Active” at Cannabinoid receptor 1. The Ki result in assay [1] is “Not Active”; in assay [2] it was 12800 nM; in assay [3] (read-out: Ki), 9.77 µM.
For the compound `CN1CCN(CCCN2c3ccccc3Sc3ccc(Cl)cc32)CC1` [PROCHLORPERAZINE], the IC50 entry on Acetylcholinesterase, at Calcitonin receptor and on Cannabinoid receptor 1 was “Not Active” each time.
`CO[C@H]1/C=C/O[C@@]2(C)Oc3c(C)c(O)c4c(O)c(c(/C=N/N5CCN(C)CC5)c(O)c4c3C2=O)NC(=O)/C(C)=C\C=C\[C@H](C)[C@H](O)[C@@H](C)[C@@H](O)[C@@H](C)[C@H](OC(C)=O)[C@@H]1C` [RIFAMPIN]: the 50% inhibitory concentration (IC50) entry (in assay [1]; in assay [2] (sf9); on Acetylcholinesterase; in assay [3]; at Calcitonin receptor; against Cannabinoid receptor 1) was “Not Active” in each case. Besides, the Ki result in assay [1] and in assay [3] was “Not Active” each time.
As to `Nc1nc2ccc(OC(F)(F)F)cc2s1` [RILUZOLE], the IC50 entry (in assay [1]; in assay [2] (sf9); against Acetylcholinesterase; in assay [3]; on Calcitonin receptor; against Cannabinoid receptor 1) was “Not Active” throughout. The inhibition constant Ki entry in assay [1] and in assay [3] was “Not Active” throughout.
For `Cc1nc2n(c(=O)c1CCN1CCC(c3noc4cc(F)ccc34)CC1)CCCC2` [RISPERIDONE], the IC50 result at Acetylcholinesterase, at Calcitonin receptor and against Cannabinoid receptor 1 was “Not Active” throughout.
Consider `C=CCC1(C(C)CCC)C(=O)NC(=O)NC1=O` (stereo not drawn) [SECOBARBITAL], for which the IC50 result (in assay [1]; in assay [2] (sf9); against Acetylcholinesterase; in assay [3]; at Calcitonin receptor; at Cannabinoid receptor 1) was “Not Active” in each case. The Ki result in assay [1] and in assay [3] was “Not Active” in each case.
For `Nc1c2c(nc3ccccc13)CCCC2` [TACRINE], the IC50 entry (in assay [1]; in assay [2] (sf9); in assay [3]; at Calcitonin receptor; against Cannabinoid receptor 1) was “Not Active” each time. In addition, the Ki result in assay [1] and in assay [3] was “Not Active” throughout.
For `CC/C(=C(\c1ccccc1)c1ccc(OCCN(C)C)cc1)c1ccccc1` [TAMOXIFEN], the half-maximal inhibitory concentration (IC50) was 1930 nM in assay [2] (read-out: IC50), “Not Active” at Acetylcholinesterase, “Not Active” at Calcitonin receptor and “Not Active” on Cannabinoid receptor 1. Also, the Ki in assay [2] is 726 nM.
